As usually defined, the IC50 is the concentration at which inhibition is half-maximal.

The target of assay [1] is T1, PGAM1 (Homo sapiens, UniProt P18669).
T1 construct: His6 (C); made in house
The assay is described as follows: PGAM1 enzymatic assay (enolase-pyruvate kinase-LDH coupled, OD 340 nm). Format: biochemical. The settings on record: optimized enzymatic assay; mean ± s.d. (n = 3). The method, then: (§1) Firstly, 1 μL inhibitor in dimethyl sulfoxide (DMSO) incubated with 49 μL 4.6 nM recombinant PGAM1, then 50 μL enzyme mix containing 3 units/mL enolase (Sigma-Aldrich, Saint Louis, MO, USA), 3 units/mL recombinant pyruvate kinase M2 (Sigma-Aldrich), 0.6 units/mL recombinant lactatdehydrogenase (LDH, Sigma-Aldrich), 100 mM Tris-HCl, 100 mM KCl, 5 mM MgCl2, 1 mM adenosine diphosphate (ADP), 0.2 mM the reduced form of nicotinamide adenine dinucleotide (NADH) and 4 mM 3PG was added. PGAM1 activity was measured as the decrease in OD at 340 nm. In addition, we performed a counter screening in which 4mM 2PG was added to 50 μL reaction mix containing the indicated inhibitor, 3 units/mL enolase (Sigma-Aldrich), 3 units/mL recombinant pyruvate kinase M2 (Sigma-Aldrich), 0.6 units/mL recombinant LDH (Sigma-Aldrich), 100 mM Tris-HCl, 100 mM KCl, 5 mM MgCl2, 1 mM ADP and 0.2 mM NADH. The other three enzyme activity was measured as the decrease in OD at 340 nm.

For assay [2], the system named is H1299 cells. The assay is described as follows: Cell viability assay (MTT, 72 h), H1299. Format: cell-based. The settings on record: Homo sapiens, NCI-H1299, proliferation, mean ± s.d. (n = 3). The method, then: The H1299 cell line was obtained from Guangzhou Jenniobio Biotechnology Co., Ltd. (Guangzhou, China), PC9 and A549 cells were gifted from Deng Jiong’s lab in the School of Medicine, Shanghai Jiao Tong University, Shanghai, China). H1299, PC9 cells were cultured in RPMI-1640 medium and A549 cells were cultured in F-12K medium containing 10% fetal bovine serum (FBS), 100 units/mL of Penicillin and 100 μg/mL Streptomycin. In cell viability assays, 2000 H1299 cells, A549 cells or 1000 PC9 cells per well were seeded in 96-well plate. After attachment for 24 h, the cells were treated with indicated inhibitor for 72 h. After incubation with 0.5 mg/mL methylthiazolyldiphenyl-tetrazolium bromide (MTT) for 4 h, cell viability was measured as the OD at 570 nm.

The test system of assay [3] is enolase-pyruvate kinase-LDH. Briefly: Counter screening: control linked enzyme assay with 2PG. Format: biochemical. The conditions noted are these: 0.5 μM compound, pyruvate kinase M2, LDH without PGAM1, mean ± s.d. (n = 2). On the procedure:
as §1
In general terms: The purpose of a counterscreen is to sort out artefacts and off-target activity.

T1 sequence (P18669 whole entry): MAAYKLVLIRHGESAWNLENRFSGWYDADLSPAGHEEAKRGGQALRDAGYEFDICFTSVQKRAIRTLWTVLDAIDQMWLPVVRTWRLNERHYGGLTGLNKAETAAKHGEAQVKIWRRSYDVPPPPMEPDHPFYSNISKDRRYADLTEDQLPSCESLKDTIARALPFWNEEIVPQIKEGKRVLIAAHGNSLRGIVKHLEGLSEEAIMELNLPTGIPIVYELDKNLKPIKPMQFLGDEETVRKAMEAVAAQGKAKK

As to `O=C1c2ccccc2C(=O)c2c1cc(NS(=O)(=O)c1ccccc1I)c(O)c2O` [Compound 9q, 2-Iodo-N-(3,4-dihydroxy-9,10-dioxo-9,10-dihydroanthracen-2-yl) benzenesulfonamide], the IC50 in assay [1] came to 260 ± 30 nM; in assay [2], 26.4 ± 3.8 µM. In assay [3], the “Inhibition in the Control Linked Enzyme Assay (0.5 μM)” value (from here on “Inhibition”) was −2.3 ± 2.4%.
Taken in the same sequence, the figures for `O=C1c2ccccc2C(=O)c2c1cc(NS(=O)(=O)c1ccc(Cl)cc1Cl)c(O)c2O` [Compound 9j, 2,4-Dichloro-N-(3,4-dihydroxy-9,10-dioxo-9,10-dihydroanthracen-2-yl) benzenesulfonamide] were 280 ± 70 nM, 23.7 ± 1.1 µM and −2.0 ± 5.1%.
Turning to `O=C1c2ccccc2C(=O)c2c1cc(NS(=O)(=O)c1cccc(Br)c1)c(O)c2O` [Compound 9o, 3-Bromo-N-(3,4-dihydroxy-9,10-dioxo-9,10-dihydroanthracen-2-yl) benzenesulfonamide], the IC50 in assay [1] was 350 ± 5 nM; in assay [2], 24.5 ± 0.2 µM. Moreover, the “Inhibition” value in assay [3] stood at 7.7 ± 0.2%.
Taken in the same sequence, the figures for `O=C1c2ccccc2C(=O)c2c1cc(NS(=O)(=O)c1cccc(F)c1F)c(O)c2O` [Compound 9h, N-(3,4-Dihydroxy-9,10-dioxo-9,10-dihydroanthracen-2-yl)-2,3-difluorobenzenesulfonamide] were 890 ± 130 nM, 45.7 ± 2.7 µM and 0.06 ± 0.4%.
Taken in the same sequence, the figures for `O=C1c2ccccc2C(=O)c2c1cc(NS(=O)(=O)c1ccc(C(F)(F)F)cc1)c(O)c2O` [Compound 9a, N-(3,4-Dihydroxy-9,10-dioxo-9,10-dihydroanthracen-2-yl)-4-(trifluoromethyl) benzenesulfonamide] were 540 ± 40 nM, 20.7 ± 0.6 µM and 8.0 ± 5.0%.
As for `O=C1c2ccccc2C(=O)c2c1cc(NS(=O)(=O)c1ccc(Br)cc1)c(O)c2O` [Compound 9m, 4-Bromo-N-(3,4-dihydroxy-9,10-dioxo-9,10-dihydroanthracen-2-yl) benzenesulfonamide], the IC50 came out at 260 ± 20 nM in assay [1] and 28.1 ± 1.9 µM in assay [2]. For the same molecule, the “Inhibition” value in assay [3] is −0.1 ± 2.5%.
Turning to `O=C1c2ccccc2C(=O)c2c1cc(NS(=O)(=O)c1ccccc1Br)c(O)c2O` [Compound 9n, 2-Bromo-N-(3,4-dihydroxy-9,10-dioxo-9,10-dihydroanthracen-2-yl) benzenesulfonamide], the IC50 in assay [1] was 200 ± 40 nM; in assay [2], 50 ± 0.6 µM. Further, the “Inhibition” value in assay [3] is 6.1 ± 0.8%.
With `O=C1c2ccccc2C(=O)c2c1cc(NS(=O)(=O)c1ccc([N+](=O)[O-])cc1)c(O)c2O` [Compound 9b, N-(3,4-Dihydroxy-9,10-dioxo-9,10-dihydroanthracen-2-yl)-4-nitrobenzenesulfonamide], the values for the IC50 in assay [1] and in assay [2] were 470 ± 80 nM and 25.8 ± 2.2 µM, respectively. Further, the “Inhibition” value in assay [3] is listed as −2.9 ± 0.3%.
Taken in the same sequence, the figures for `O=C1c2ccccc2C(=O)c2c1cc(NS(=O)(=O)c1ccc(F)cc1)c(O)c2O` [Compound 9f, N-(3,4-Dihydroxy-9,10-dioxo-9,10-dihydroanthracen-2-yl)-4-fluorobenzenesulfonamide] were 540 ± 70 nM, 24.2 ± 2.6 µM and 5.7 ± 0.7%.
Turning to `O=C1c2ccccc2C(=O)c2c1cc(NS(=O)(=O)c1c(Cl)cccc1Cl)c(O)c2O` [Compound 9k, 2,6-Dichloro-N-(3,4-dihydroxy-9,10-dioxo-9,10-dihydroanthracen-2-yl) benzenesulfonamide], the IC50 in assay [1] is 890 ± 330 nM; in assay [2], 34.6 ± 2.4 µM. Also, the “Inhibition” value in assay [3] came to 0.5 ± 3.2%.

These data come from paper PMC6429356, “Development of Anthraquinone Analogues as Phosphoglycerate Mutase 1 Inhibitors” (Molecules, 2019).
